# Reference: the METLIN SMRT retention time set (Domingo-Almenara et al. 2019)
# Assay: gradient 5% acetonitrile 3 min, to 50% in 2 min, to 85% in 15 min, held 3 min, 100 µL/min
# Details: column: Zorbax Extend-C18 2.1 x 50 mm; eluents: water / acetonitrile, 0.1% formic acid
# Procedure, shortened: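 A Zorbax Extend-C18 column (2.1 × 50 mm, 1.8 μm) run at 100 μL/min with water and acetonitrile, both containing 0.1% formic acid, separated mixtures of ~100 pure standards. The HPLC was coupled to a quadrupole time-of-flight mass spectrometer operated in positive and negative ionization mode, with dead and dwell volumes of 40 μL and 900 μL. Each retention time was taken from a computationally picked adduct peak that was then manually inspected.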
row,RP-LC retention time,Compound
1,616 s,CN1CCN(CCNc2ccc(CO)c3sc4ccccc4c(=O)c23)CC1
2,996 s,O=C(Nc1ccc(F)cc1)C1CCCN(c2nc3ccsc3c(=O)n2Cc2ccc(F)cc2)C1 (stereo unspecified)
3,767 s,CCOC(=O)c1cc(S(=O)(=O)N2CCCC2C(=O)N2CCCCC2)cn1C (stereo unspecified)
4,895 s,Cc1c(S(=O)(=O)N2CCCC(C)C2)c(C)n(C)c1C(=O)Nc1ccccc1F (stereo unspecified)
5,967 s,COc1ccc(-c2nccc(C3CCCN(C(=O)c4ccccc4)C3)n2)cc1 (stereo unspecified)
6,619 s,CCCN(C(=O)Nc1ccc(CC)cc1)c1nc(-c2ccc(C3CCCCC3)cc2)cs1
7,1010 s,CSc1ccc(CNC(=O)C2CCCN(c3ccc(=O)n(-c4ccc(C)c(Cl)c4)n3)C2)cc1 (stereo unspecified)
8,1090 s,CCn1c(=O)c(N2CCCC(C(=O)N3CCN(c4ccc(F)cc4)CC3)C2)nc2ccccc21 (stereo unspecified)
9,766 s,COc1ccc(CCNS(=O)(=O)c2cc3c4c(c2)CCC(=O)N4CCC3)cc1OC
10,583 s,Cn1ncc2c3ccccc3n(CC(=O)NCCc3cnc[nH]3)c2c1=O
11,566 s,CCc1cc(=O)n(CC(=O)NCc2ccccc2)c(N)n1
12,943 s,O=C(C1c2ccccc2CCN1C(=O)C1CC1)N1CCN(c2ccc(F)cc2)CC1 (stereo unspecified)
13,726 s,COc1ccc(-c2cc(OC)c3cc(NC(=O)c4cccs4)ccc3n2)cc1
14,612 s,O=C(NCC1CC1)[C@@H]1OCCN(C2CC2)[C@H]1c1ccccc1
15,582 s,COc1cc(CN2CCCC2c2cc(C)on2)cc(OC)c1O (stereo unspecified)
16,1090 s,COc1ccc(S(=O)(=O)Cc2nc(-c3cccc(Br)c3)no2)cc1
17,1020 s,Cc1ccc(Nc2c(-c3ccc(Cl)cc3)nc3ncccn23)cc1Cl
18,700 s,O=S(=O)(NCCS(=O)(=O)N1CCc2ccccc21)c1cccnc1
19,701 s,CCCCN(Cc1ccco1)C(=O)Cn1nc(Cc2cccnc2)c2ccccc2c1=O
20,900 s,COc1cccc(CCNC(=O)CN2C(=O)CSc3cccn3-c3ccccc32)c1
21,991 s,CCCCOc1ccccc1C(=O)N(Cc1ccc(Br)o1)C1CCS(=O)(=O)C1 (stereo unspecified)
22,690 s,CC(NC(=O)Cc1nnc(-c2ccc3ncccc3c2)o1)c1ccccc1 (stereo unspecified)

row,RP-LC retention time,Compound
1,1000 s,COc1ccc(OC)c(NC(=O)N(C)CCc2noc(COc3ccc(Cl)cc3)n2)c1
2,595 s,CN1CCN(CCCNC(=O)CCCN2C(=O)C(c3ccccc3)Oc3cccnc32)CC1 (stereo unspecified)
3,636 s,Cc1cccc(N2CCN(Cc3nc4nc(C)cc(N5CCOCC5)n4n3)CC2)c1
4,824 s,O=C(Nc1ccc2c(c1)N(C(=O)c1cccs1)CC2)c1ccccn1
5,735 s,Cc1ccc(-c2noc(-c3cccc(S(=O)(=O)N4CCN(C)CC4)c3)n2)cc1
6,867 s,Cc1ccc(NC(=O)N2CCc3c(c(-c4nc(C5CC5)no4)nn3C)C2)cc1
7,778 s,Cc1c(C(=O)NCCOc2ccc3c(c2)OCO3)cccc1[N+](=O)[O-]
8,593 s,CCOCCCNC(=O)N1CCN(Cc2nc3cc(C(=O)NC(C)C)ccc3n2C)CC1
9,604 s,O=C(c1ccc(-c2cccs2)nc1)N1CCN(c2ccccn2)CC1
10,704 s,COc1ccc(CNC(=O)C2CCN(c3ccc(SCc4ccccc4)nn3)CC2)cc1OC
11,581 s,O=C1Nc2cc(C(=O)N3CCC(N4CCCCC4)CC3)ccc2N2CCCCC12 (stereo unspecified)
12,733 s,NS(=O)(=O)c1ccc(CCNC(=O)c2nc(Cn3nc(-c4ccc(F)cc4)ccc3=O)no2)cc1
13,563 s,CCN1CCN(c2ncnc3sc(C(=O)NCCCOC)c(C)c23)CC1
14,616 s,Cc1ccc(-c2c(C(=O)NCCN3CCOCC3)nc3ccccn23)cc1
15,1030 s,O=C(NCc1cc(F)cc(F)c1)C1CCCN(c2nccnc2Sc2ccccc2)C1 (stereo unspecified)
16,1110 s,Cc1csc(-c2cc(S(=O)(=O)NCCc3ccc(Cl)cc3)c(C)s2)n1
17,662 s,COc1ccc(CNC(=O)NCC2CCN(S(=O)(=O)C3CC3)CC2)cc1
18,688 s,CC(C)c1ccc(C(=O)NCC(=O)Nc2nc3ccccc3[nH]2)cc1
19,674 s,CCOC(=O)c1ccc(NC(=O)N2CCC(n3cnc4cccnc43)CC2)cc1
20,608 s,O=C(NCCCS(=O)(=O)N1CCN(c2ncccn2)CC1)C1CC1
21,740 s,O=C(Nc1ccc(Br)cc1)Nc1ccc2nc3n(c(=O)c2c1)CCCC3
22,573 s,Cc1ccccc1N1CCN(CCc2nnc3n2CCCC3)CC1

row,RP-LC retention time,Compound
1,1360 s,O=S(=O)(NCCC1=CCCCC1)c1cccc(-c2nc(-c3ccccc3)no2)c1
2,735 s,O=C(NC(CO)C(O)c1ccc([N+](=O)[O-])cc1)C(Cl)Cl (stereo unspecified)
3,795 s,CCOC(=O)c1[nH]c(C)c(C(=O)C(C)N(CC)C(=O)c2ccc(OC)cc2)c1C (stereo unspecified)
4,585 s,Cc1nc(C)c(-c2ccc(=O)n(CCNC(=O)c3ccno3)n2)s1
5,659 s,O=C(Nc1cccc(-c2nnc3n2CCCC3)c1)c1ccsc1
6,800 s,COc1cccc(CN2N=C(C(=O)N3CCOCC3)S(=O)(=O)c3ccccc32)c1
7,835 s,COc1ccc(C2=NC3(CCN(C(=O)Nc4ccc(Cl)cc4)CC3)NC2=O)cc1
8,702 s,COc1ccc(OC)c(S(=O)(=O)NC2CCCN(c3ccc(=O)n(C)n3)C2)c1 (stereo unspecified)
9,572 s,CNC(=O)N1C[C@@H](CN(C)C)[C@H](NC(=O)C2(c3ccc(OC)cc3)CC2)C1
10,1120 s,CC1CCCCN1S(=O)(=O)c1ccc(Cl)c(C(F)(F)F)c1 (stereo unspecified)
11,867 s,CCN(C(=O)CC(C)S(=O)(=O)c1ccc2c(c1)CCN2C(=O)C1CC1)c1ccccc1 (stereo unspecified)
12,588 s,O=C(CCc1c[nH]c2ccccc12)N1CC(n2ccnc2)C1
13,787 s,Cc1cc(C)c2sc(N3CCN(C(=O)C4CCCN(S(C)(=O)=O)C4)CC3)nc2c1 (stereo unspecified)
14,904 s,Cc1cc(C)n(Cc2nc(-c3ccc(NC(=O)C(C)(C)C)cc3)oc2C)n1
15,707 s,CSc1ccccc1NC(=O)C(C)Cn1nc(-c2ccco2)ccc1=O (stereo unspecified)
16,1050 s,COc1ccc(-c2noc(N3CCC(C(=O)NCCC4=CCCCC4)CC3)n2)cc1
17,685 s,Cc1ccc2oc(N3CCN(C(=O)c4ccc(-c5noc(C(C)C)n5)cc4)CC3)nc2n1
18,640 s,O=C(Cn1nc2n(c1=O)CCCC2)NCc1ccccc1
19,598 s,O=C(c1ccco1)N1CCN(c2nc(N3CCOCC3)c3n[nH]nc3n2)CC1
20,570 s,Cc1noc(COC2CCCN(C(=O)c3ccc4cc[nH]c4c3)C2)n1 (stereo unspecified)
21,1150 s,Cc1ccc(CNC(=O)C2CCCN(c3nc4ccccc4n(Cc4ccccc4)c3=O)C2)o1 (stereo unspecified)
22,551 s,N#Cc1cccc(CN2CCC(F)(F)C(CO)C2)c1 (stereo unspecified)
